Test: Molecular penetration into the brain after focused ultrasound (FUS) induced BBB opening
Settings: in vivo
Excerpt: First, there are three testing substances, and their molecular size spreading from 1 to nearly 150 kDa are employed in second procedure. Three substances are Gd-DTPA, Evans blue, and Bevacizumab.
FIGS. 10A and 10B are about that selected the UEI ranging of 0.65 and 1.25 for testing, and under testing the center frequency of only 0.4 MHz is employed. FIG. 10A illustrates the measured molecular penetration (molecule 1-3) of different exposure conditions (UEI set to 0, 0.65, and 1.25). FIG. 10B illustrates the measured molecular penetration (molecule 1-3) of different molecular ranges (UEI set to 0, 0.65, and 1.25). These measurement results will be compared with the final predict results.
The molecule 1 has the highest penetration because of its small molecular size (1 kDa; the predicted concentration range is 1.7 to 6.2 μM during UEI ranging of 0.65-1.25). […]
Integrating of the UEI and the UII by above uniform and calibrated method steps, in this embodiment, it is possible to examine the three molecular penetrations reflecting to the four imaging indexes with different UEIs. Another experiment is conducted, the three molecular penetrations was measured (shown in FIG. 10), and comparing to the quantified predict results of the UEI. The correlation of UEI is evaluated under the UII.

Row | Compound | predicted concentration range (molecular penetration)
1 | Cc1cc(-c2ccc(/N=N/c3ccc4c(S(=O)(=O)O)cc(S(=O)(=O)O)c(N)c4c3O)c(C)c2)ccc1/N=N/c1ccc2c(S(=O)(=O)O)cc(S(=O)(=O)O)c(N)c2c1O [molecule 2, Evans blue] | 0.7 to 3.1 µM
2 | Bevacizumab [molecule 3] | 0.02 to 2.1 µM

Reference: patent US10076652B2, “Method for ultrasound-mediated delivery system to monitor molecular penetration” (CHANG GUNG UNIVERSITY, priority 2015, dated 2018)
